The subject of experiment [1] is MDA-MB-231. The experiment can be described thus: Antiproliferative activity against human MDA-MB-231 cells after 24 hrs by MTT assay. The experiment is classed as functional, cell-based. The conditions noted are these: MDA-MB-231, 24 h. (Tetrazolium dyes change colour on reduction, which living cells bring about.)
The subject of experiment [2] is MCF7. Nature of the experiment: Antiproliferative activity against human MCF7 cells after 24 hrs by MTT assay. The conditions noted are these: MCF7, 24 h. In kind it is functional, cell-based.
Experiment [3] relates to MCF7. Nature of the experiment: Potency index, ratio of tamoxifen IC50 to compound IC50 for antiproliferative activity against human MCF7 cells. In kind it is functional.
Experiment [4] has as its system MDA-MB-231. Nature of the experiment: Potency index, ratio of tamoxifen IC50 to compound IC50 for antiproliferative activity against human MDA-MB-231 cells. In kind it is functional.

This note sets out measurements from ChEMBL document CHEMBL4261623, “Synthesis, computational studies and antiproliferative activities of coumarin-tagged 1,3,4-oxadiazole conjugates against MDA-MB-231 and MCF-7 human breast cancer cells” (Bioorg Med Chem, 2018).

For the compound `Cc1cc(OCc2nnc(S(=O)(=O)Cc3cccc(F)c3)o2)cc2oc(=O)cc(C)c12`, the IC50 (in general, the concentration at which inhibition is half-maximal) in the experiment with MDA-MB-231 [1] was 21.3 µM; in the experiment on MCF7 [2], 70.4 µM.
In the case of `Cc1cc(OCc2nnc(SCc3ccc(Cl)cc3Cl)o2)cc2oc(=O)cc(C)c12`, the “Ratio IC50” value with MCF7 [3] was determined as 1.4. Moreover, the concentration for half-maximal inhibition (IC50) in the experiment with MDA-MB-231 [1] was more than 100 µM; in the experiment with MCF7 [2], less than 5 µM.
For `CCS(=O)(=O)c1nnc(COc2cc(C)c3c(C)cc(=O)oc3c2)o1`, the IC50 in the experiment on MDA-MB-231 [1] and in the experiment on MCF7 [2] was more than 100 µM each time.
For `Cc1cc(OCc2nnc(SCc3ccc(F)c(F)c3)o2)cc2oc(=O)cc(C)c12`, the figures for the IC50 in the experiment with MDA-MB-231 [1] and in the experiment with MCF7 [2] were more than 100 µM and 33.3 µM, respectively.
For `CC/C(=C(\c1ccccc1)c1ccc(OCCN(C)C)cc1)c1ccccc1` [TAMOXIFEN], the half-inhibitory concentration (IC50) with MDA-MB-231 [1] was found to be 47.1 µM; in the experiment with MCF7 [2] it was 7.09 µM.
In the case of `Cc1cc(OCc2nnc(SCc3ccccc3)o2)cc2oc(=O)cc(C)c12`, the IC50 in the experiment on MDA-MB-231 [1] and with MCF7 [2] was more than 100 µM in each case.
In the case of `CCCCCCS(=O)(=O)c1nnc(COc2cc(C)c3c(C)cc(=O)oc3c2)o1`, the IC50 in the experiment with MDA-MB-231 [1] and in the experiment with MCF7 [2] was more than 100 µM each time.
Turning to `Cc1cc(OCc2nnc(SCc3cccc(F)c3)o2)cc2oc(=O)cc(C)c12`, the IC50 in the experiment with MDA-MB-231 [1] was more than 100 µM; with MCF7 [2] it was 26 µM.
With `CCSc1nnc(COc2cc(C)c3c(C)cc(=O)oc3c2)o1`, the IC50 in the experiment with MDA-MB-231 [1] and with MCF7 [2] was more than 100 µM in each case.
In the case of `CCCCCCSc1nnc(COc2cc(C)c3c(C)cc(=O)oc3c2)o1`, the IC50 in the experiment with MDA-MB-231 [1] and in the experiment on MCF7 [2] was more than 100 µM in each case.
In the case of `Cc1cc(OCc2nnc(S(=O)(=O)Cc3ccccc3)o2)cc2oc(=O)cc(C)c12`, in the experiment with MDA-MB-231 [4], the “Ratio IC50” value was 7. Also, the IC50 amounted to 7.07 µM with MDA-MB-231 [1] and 38.6 µM with MCF7 [2].
Turning to `CCCS(=O)(=O)c1nnc(COc2cc(C)c3c(C)cc(=O)oc3c2)o1`, in the experiment on MDA-MB-231 [4], the “Ratio IC50” value was found to be 7. For the same compound, the IC50 in the experiment with MDA-MB-231 [1] is 7.07 µM; with MCF7 [2], more than 100 µM.
Regarding `Cc1cc(OCc2nnc(S(=O)(=O)Cc3ccc(F)c(F)c3)o2)cc2oc(=O)cc(C)c12`, the IC50 with MDA-MB-231 [1] is 31.6 µM; in the experiment with MCF7 [2] it was 55.2 µM.
For the compound `CSc1nnc(COc2cc(C)c3c(C)cc(=O)oc3c2)o1`, the IC50 in the experiment on MDA-MB-231 [1] and in the experiment on MCF7 [2] was more than 100 µM throughout.
For `CCCSc1nnc(COc2cc(C)c3c(C)cc(=O)oc3c2)o1`, the IC50 in the experiment on MDA-MB-231 [1] and in the experiment on MCF7 [2] was more than 100 µM in each case.
As to `CCCCCSc1nnc(COc2cc(C)c3c(C)cc(=O)oc3c2)o1`, the IC50 in the experiment on MDA-MB-231 [1] and in the experiment on MCF7 [2] was more than 100 µM throughout.
Consider `CCCCSc1nnc(COc2cc(C)c3c(C)cc(=O)oc3c2)o1`, for which the half-inhibitory concentration (IC50) in the experiment on MDA-MB-231 [1] and in the experiment with MCF7 [2] was more than 100 µM in each case.
